Assay results from patent US9023789B2, “Amylin analogs and pharmaceutical compositions thereof” (Novo Nordisk A/S, priority 2012, dated 2015).
Like-named read-outs stand apart in the source and are kept apart here. Numbered stars: 1 amine (or outer) side, 2 acyl side, 3 side chain; on linkers, the order of the positions; unused ones are H or OH. Bridge positions count the residues as written; N and C are the ends. Peptide text beside a SMILES is read from it. * marks the point of attachment. C20 diacid = O=C(O)CCCCCCCCCCCCCCCCCCC(=O)*; γGlu = O=C(O)[C@H](CCC(=O)[*:2])N[*:1]

Assays:
[1] = target: T1, human amylin 3(a) receptor (human calcitonin receptor + RAMP-3) in BHK570 cells (Homo sapiens, UniProt O60896+P30988); assay: ASSAY (II)a functional assay, human amylin receptor (CRE luciferase); format: cell-based
T1 construct: expressed in transfected cells
How it was run: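 Read-out: CRE-driven luciferase luminescence, single photon counting, after 30 min at room temperature with LucLite. BHK cells expressed calcitonin receptor alone or with RAMP-3 (amylin 3(a)). Cells were stimulated 3 h at 37° C in DMEM, 10% FBS, 10 mM Hepes, pH 7.4.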

[2] = ASSAY (IV) determination of solubility; format: physicochemical
How it was run: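 Solubility measured by UPLC of supernatant after centrifugation, following 18 h at room temperature. Peptide ([…] in water) was diluted 1:1 into 100 mM glycylglycine (pH 3.0, 4.0, 5.0) or bistrispropane (pH 6.0-8.0).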

[3] = target: T2, human amylin receptor (membranes from Amylin 3(a)/CRE-luc cells) (Homo sapiens, UniProt O60896+P30988); assay: ASSAY (V) binding to the human amylin receptor (SPA, 125I-rat amylin);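 further: competition binding of cell membranes (35 ng/µL) mixed with SPA beads in 384-well plates at 40 µL total volume, read by scintillation counting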
T2 construct: expressed in transfected cells
T2 sequence (P30988 25-474): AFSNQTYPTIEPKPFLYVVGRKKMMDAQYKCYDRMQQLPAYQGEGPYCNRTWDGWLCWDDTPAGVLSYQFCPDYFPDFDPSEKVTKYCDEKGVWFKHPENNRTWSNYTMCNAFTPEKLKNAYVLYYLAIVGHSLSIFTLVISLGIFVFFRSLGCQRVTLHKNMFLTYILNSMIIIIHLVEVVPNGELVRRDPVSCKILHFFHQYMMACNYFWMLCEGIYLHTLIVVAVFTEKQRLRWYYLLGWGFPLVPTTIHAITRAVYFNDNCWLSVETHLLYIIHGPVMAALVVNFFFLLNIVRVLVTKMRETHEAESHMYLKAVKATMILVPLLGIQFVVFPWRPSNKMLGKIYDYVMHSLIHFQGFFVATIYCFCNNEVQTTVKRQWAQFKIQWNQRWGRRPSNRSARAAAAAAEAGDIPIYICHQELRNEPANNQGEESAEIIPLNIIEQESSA
T2 sequence (O60896 24-148 partner): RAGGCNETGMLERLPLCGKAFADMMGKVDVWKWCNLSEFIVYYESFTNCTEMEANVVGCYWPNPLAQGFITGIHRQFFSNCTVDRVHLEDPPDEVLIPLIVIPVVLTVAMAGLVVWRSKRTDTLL

[4] = hCTR funct. EC50 divided by hAmylin-R funct. EC50
[5] = hCTR funct. EC50 over hAmylin-R funct. EC50
[6] = human functional selectivity: hCTR funct. EC50 / hAmylin-R funct. EC50
[7] = bistrispropane buffer, pH 6.5, read-out: Solubility pH 6.5 Concentration
[8] = bistrispropane buffer, pH 7.5, read-out: Solubility pH 7.5 Concentration
[9] = bistrispropane buffer, pH 6.0, read-out: Solubility pH 6.0 Concentration
[10] = bistrispropane buffer, pH 7.0, read-out: Solubility pH 7.0 Concentration
[11] = bistrispropane buffer, pH 8.0, read-out: Solubility pH 8.0 Concentration
[12] = glycylglycine buffer, pH 3.0, read-out: Solubility pH 3.0 Concentration
[13] = glycylglycine buffer, pH 4.0, read-out: Solubility pH 4.0 Concentration
[14] = glycylglycine buffer, pH 5.0, read-out: Solubility pH 5.0 Concentration
[15] = Table 5, selectivity, hCTR bind IC50 / hAmylin-R bind IC50
[16] = Table 5a, selectivity, hCTR bind IC50 / hAmylin-R bind IC50
[17] = Table 5b, selectivity, hCTR bind IC50 / hAmylin-R bind IC50
[18] = Table 7, human binding selectivity, included for comparison
[19] = Table 7a (preferred compounds), human binding selectivity, included for comparison
[20] = ratio of human calcitonin receptor binding IC50 to human amylin receptor binding IC50

Compound | Ratio hCT/hAmylin funct. [1, 4] | Ratio hCT/hAmylin funct. [1, 5] | Ratio hCT/hAmylin funct. [1, 6] | solubility at 18 h [2, 7] [µM] | solubility at 18 h [2, 8] [µM] | solubility at 18 h [2, 9] [µM] | solubility at 18 h [2, 10] [µM] | solubility at 18 h [2, 11] [µM] | solubility at 18 h [2, 12] [µM] | solubility at 18 h [2, 13] [µM] | solubility at 18 h [2, 14] [µM] | Ratio hCT/hAmylin binding [3, 15] | Ratio hCT/hAmylin binding [3, 16] | Ratio hCT/hAmylin binding [3, 17] | Ratio hCT/hAmylin binding [3, 18] | Ratio hCT/hAmylin binding [3, 19] | Ratio hCT/hAmylin binding [3, 20]
CC[C@H](C)[C@H](NC(=O)[C@H](C)NC(=O)CNC(=O)[C@H](Cc1ccccc1)NC(=O)[C@H](CC(N)=O)NC(=O)[C@@H]1CCCN1C(=O)[C@H](CO)NC(=O)[C@H](CO)NC(=O)[C@H](Cc1c[nH]cn1)NC(=O)[C@H](CCCNC(=N)N)NC(=O)[C@H](CC(C)C)NC(=O)[C@H](Cc1ccccc1)NC(=O)[C@H](CCC(=O)O)NC(=O)[C@H](C)NC(=O)[C@H](CC(C)C)NC(=O)[C@H](CCCNC(=N)N)NC(=O)[C@H](CCC(N)=O)NC(=O)[C@@H](NC(=O)[C@H](C)NC(=O)[C@@H]1CSSC[C@H](NC(=O)[C@H](CCCCN)NC(=O)CC[C@H](NC(=O)CCCCCCCCCCCCCCCCCCC(=O)O)C(=O)O)C(=O)N[C@@H](CC(N)=O)C(=O)N[C@@H]([C@@H](C)O)C(=O)N[C@@H](C)C(=O)N[C@@H]([C@@H](C)O)C(=O)N1)[C@@H](C)O)C(=O)N1CCC[C@H]1C(=O)N[C@@H](CO)C(=O)N[C@@H](CO)C(=O)N[C@H](C(=O)N[C@@H](CC(N)=O)C(=O)N[C@H](C(=O)NCC(=O)N[C@@H](CCCCN)C(=O)N[C@@H](CC(N)=O)C(=O)N[C@H](C(=O)N[C@@H](Cc1ccc(O)cc1)C(N)=O)[C@@H](C)O)C(C)C)[C@@H](C)O [Example 36] ({C20 diacid-γGlu}-KCNTATCATQRLAEFLRHSSPNFGAIPSSTNVGKNTY-NH2; disulfide 2-7 (inferred)) | 6.8 | 6.8 | 6.8 | ≥ 200 | ≥ 200 | ≥ 200 | ≥ 200 | ≥ 200 | ≥ 200 | ≥ 200 | ≥ 200 | 15.7 | 15.7 | 15.7 | 15.7 | 15.7 | 15.7
CC[C@H](C)[C@H](NC(=O)[C@H](C)NC(=O)CNC(=O)[C@H](Cc1ccccc1)NC(=O)[C@H](CC(N)=O)NC(=O)[C@@H]1CCCN1C(=O)[C@H](CO)NC(=O)[C@H](CO)NC(=O)[C@H](Cc1c[nH]cn1)NC(=O)[C@H](CCCNC(=N)N)NC(=O)[C@H](CC(C)C)NC(=O)[C@H](Cc1ccccc1)NC(=O)[C@H](CCC(=O)O)NC(=O)[C@H](C)NC(=O)[C@H](CC(C)C)NC(=O)[C@H](CCCNC(=N)N)NC(=O)[C@H](CCC(N)=O)NC(=O)[C@@H](NC(=O)[C@H](C)NC(=O)[C@@H]1CSSC[C@H](NC(=O)[C@H](CCCCN)NC(=O)CC[C@H](NC(=O)CCCCCCCCCCCCCCCCCCC(=O)O)C(=O)O)C(=O)N[C@@H](CC(N)=O)C(=O)N[C@@H]([C@@H](C)O)C(=O)N[C@@H](C)C(=O)N[C@@H]([C@@H](C)O)C(=O)N1)[C@@H](C)O)C(=O)N1CCC[C@H]1C(=O)N[C@@H](CO)C(=O)N[C@@H](CO)C(=O)N[C@H](C(=O)N1CCC[C@H]1C(=O)N[C@H](C(=O)NCC(=O)N[C@@H](CO)C(=O)N[C@@H](CC(N)=O)C(=O)N[C@H](C(=O)N[C@@H](Cc1ccc(O)cc1)C(N)=O)[C@@H](C)O)C(C)C)[C@@H](C)O [Example 31] ({C20 diacid-γGlu}-KCNTATCATQRLAEFLRHSSPNFGAIPSSTPVGSNTY-NH2; disulfide 2-7 (inferred)) | 6.4 | 6.4 | 6.4 | ≥ 200 | ≥ 200 | ≥ 200 | ≥ 200 | ≥ 200 | ≥ 200 | ≥ 200 | ≥ 200 | 16.0 | 16.0 | 16.0 | 16.0 | 16.0 | 16.0
